Patent publication US10759798B2, “ABT-199 addition salt and crystal form thereof, preparation method thereof, and pharmaceutical composition thereof” (Hangzhou SoliPharma Co., Ltd, priority 2016, dated 2020)
“Also recorded” adds a separate entry of the source. Counter-ions that a name gives are not always drawn. Each block holds one molecule with its values, some of them ahead of it.

Assays:
[1] = Storage stability at room temperature and 10%-90% RH for 4 months; assay type: physicochemical; conditions: room temperature
[2] = Water solubility test (Comparative Example 4); assay type: physicochemical; conditions: 25° C.
Protocol: The ABT-199 dihydrochloride Form 1 prepared by the invention and the known ABT-199 hydrochloride Form II prepared according to the Preparation Example 2 were tested for water solubility. In specific, 10 mg sample was placed in a 20 mL glass bottle, and added with 10 mL deionized water at 25° C. to form a suspension, which was stirred for 24 hours at 25° C., filtered, and detected by HPLC, and the solubility of the sample in water was calculated.

[3] = Crystalline stability at 130° C. for 1 day by XRPD (Comparative Example 2); assay type: physicochemical; conditions: for crystalline form after being stored at 130° C. for 1 day: XRPD
Protocol: The ABT-199 monohydrochloride Form B prepared by the present invention was compared with the known ABT-199 hydrochloride Form II prepared according to the Preparation Example 2. In specific, 30 mg samples were placed at 130° C. for 1 day, and XRPD was carried out to investigate the crystalline stability.

[4] = Water solubility test (Comparative Example 1); assay type: physicochemical
Protocol: The ABT-199 monohydrochloride Form A prepared in the present invention was compared with the known ABT-199 hydrochloride Form II prepared according to the Preparation Example 2 in a water solubility test. In specific, 10 mg sample was placed in a 50 mL glass bottle, and added with 10 mL deionized water dropwisely at 25° C. to form a suspension. The suspension was treated with ultrasonics until the suspension was stirred for 24 hours and the sample was almost dissolved, the resultant solution was filtered and subject to HPLC detection, and the sample solubility in water was calculated.

[5] = Slurry competition experiment for crystalline form stability (Comparative Example 3); assay type: physicochemical; conditions: for crystalline form in slurry competition experiment: water-saturated ethyl acetate, 3 days, room temperature or 40° C.
Protocol: The ABT-199 monohydrochloride Form C prepared by the invention and the known ABT-199 hydrochloride Form II prepared by Preparation Example 2 were used for the competition experiment to test the crystalline form stability. In specific, 20 mg ABT-199 Form II and 20 mg ABT-199 monohydrochloride Form C samples were added to the same water-saturated ethyl acetate to form slurries, which were stirred for 3 days at room temperature or at 40° C., then the samples were analyzed by XRPD to investigate their crystalline form stability.

[6] = cited from earlier work
[7] = slurry of Form II and Form C in water-saturated ethyl acetate, XRPD

high-temperature stability compared with known ABT-199 hydrochloride Form II ([3]; 130° C., 1 day): better high-temperature-stability
crystalline form after being stored at 130° C. for 1 day ([3]; 130° C., 1 day): Form B
crystalline form after being stored at 130° C. for 1 day ([3]; 130° C., 1 day, listed as Form B): does not change
appearance, XRPD pattern and melting point after storage ([1]; listed as Form B): remains unchanged
Compound: CC1(C)CCC(CN2CCN(c3ccc(C(=O)NS(=O)(=O)c4ccc(NCC5CCOCC5)c([N+](=O)[O-])c4)c(Oc4cnc5[nH]ccc5c4)c3)CC2)=C(c2ccc(Cl)cc2)C1 [ABT-199 monohydrochloride Form B]

appearance, XRPD pattern and melting point after storage ([1]; listed as Form C): remains unchanged
crystalline form after stirring at 40° C. for 3 days [5, 7]: Form C
crystalline form after stirring at room temperature for 3 days ([5]; slurry of Form II and Form C in water-saturated ethyl acetate, room temperature, XRPD): Form C
crystalline form in slurry competition experiment [5]: remains unchanged
Compound: CC1(C)CCC(CN2CCN(c3ccc(C(=O)NS(=O)(=O)c4ccc(NCC5CCOCC5)c([N+](=O)[O-])c4)c(Oc4cnc5[nH]ccc5c4)c3)CC2)=C(c2ccc(Cl)cc2)C1 [ABT-199 monohydrochloride Form C]

Second part, the molecule before the results:

Compound: CC1(C)CCC(CN2CCN(c3ccc(C(=O)NS(=O)(=O)c4ccc(NCC5CCOCC5)c([N+](=O)[O-])c4)c(Oc4cnc5[nH]ccc5c4)c3)CC2)=C(c2ccc(Cl)cc2)C1 [ABT-199 dihydrochloride Form 1]
appearance, XRPD pattern and melting point after storage ([1]; listed as Form 1): remains unchanged
solubility at 24 h ([2]; thermodynamic from solid, deionized water, stirred 24 hours, HPLC): ~50 µg/mL
solubility in water compared with known ABT-199 hydrochloride Form II [2]: higher solubility
solubility in water compared with known ABT-199 hydrochloride Form II ([2]; listed as Form 1): higher

Compound: CC1(C)CCC(CN2CCN(c3ccc(C(=O)NS(=O)(=O)c4ccc(NCC5CCOCC5)c([N+](=O)[O-])c4)c(Oc4cnc5[nH]ccc5c4)c3)CC2)=C(c2ccc(Cl)cc2)C1.Cl [ABT-199 hydrochloride Form II, reference compound]
crystalline form after being stored at 130° C. for 1 day ([3]; 130° C., 1 day, listed as ABT-199 monohydrochloride Form II): changes; also recorded: Phase transition occurred
stability at high temperature (in words) ([3]; high temperature): poor stability at high temperature
solubility ([4]; deionized water, 25° C., 24 hours, HPLC): About 20 μg/mL
solubility in water (in words) ([4]; water): low solubility in water
solubility ([2]; deionized water, stirred 24 hours, HPLC): About 20 μg/mL
crystalline form after stirring at 40° C. for 3 days [5, 7]: Convered to Form C
crystalline form in slurry competition experiment [5]: changed to Form C
crystalline form in slurry competition experiment ([5]; listed as ABT-199 monohydrochloride Form II): converted to Form C

Compound: CC1(C)CCC(CN2CCN(c3ccc(C(=O)NS(=O)(=O)c4ccc(NCC5CCOCC5)c([N+](=O)[O-])c4)c(Oc4cnc5[nH]ccc5c4)c3)CC2)=C(c2ccc(Cl)cc2)C1 [ABT-199 hydrochloride Form I]
stability when exposed to air [6]: easily converted to ABT-199 hydrochloride Form II

Compound: CC1(C)CCC(CN2CCN(c3ccc(C(=O)NS(=O)(=O)c4ccc(NCC5CCOCC5)c([N+](=O)[O-])c4)c(Oc4cnc5[nH]ccc5c4)c3)CC2)=C(c2ccc(Cl)cc2)C1 [ABT-199 monohydrochloride Form A]
appearance, XRPD pattern and melting point after storage ([1]; listed as Form A): unchanged
solubility at 24 h ([4]; thermodynamic from solid, deionized water, 25° C., 24 hours, HPLC): ~40 µg/mL
solubility in water compared with known ABT-199 hydrochloride Form II ([4]; water, 25° C.): higher solubility
